Experiments:
[1] = tested on: PKC; conditions: at >100 μM; cited from earlier work
[2] = tested on: PKA; conditions: at >100 μM; cited from earlier work
[3] = tested on: Cdk-1/cyclin B; conditions: at >100 μM; cited from earlier work
[4] = tested on: CK-II; conditions: at >100 μM; cited from earlier work
[5] = tested on: HTwist and MSP cells; experiment: Mammosphere assay, HTwist and MSP cells; type: cell-based, human; conditions: 10 μM; to a similar extent as added BMP4 protein
Description: FIGS. 10A-10E. […] (FIG. 10E) Mammosphere Assay: HTwist and MSP were treated daily during mammosphere formation (5 days) with BMP4 (0.5 μg/ml), SB431542 (10 μM) or a combination of both, n(mammospheres)/1000 cells, n=6.
(§1) Mammosphere and tumorsphere assay. Assays were performed as previously described with modifications (Dontu et al., 2003): 1000 cells/well were seeded in 96-well ultra-low adhesion plates (Corning) in MEGM medium containing 1.3% methylcellulose (Stem Cell Technologies) supplemented with 20 ng/ml EGF, 10 ng/ml bFGF (both Sigma) and B27 (Gibco). Primary spheres were dissociated by trypsinization and replated for secondary sphere formation after a period of 5-7 days.

[6] = tested on: HTwist and MSP cells; experiment: Boyden chamber migration assay, HTwist and MSP cells; type: cell-based, human; conditions: for effect on migration: 10 μM, to a similar extent as added BMP4 protein
Description: (§2) FIGS. 3A-3E. Autocrine Signaling controls migration and mammosphere formation.
FIGS. 10A-10E. […] (FIG. 10C) Mammosphere assay: HTwist cells were treated daily during mammosphere formation (5 days) with proteins as described in (B); *control vs. single treatment, p<1×10^−5, **single vs. double-treatment, p<0.01, n(mammospheres)/1000 cells, n=6, (FIG. 10D) Migration Assay: HTwist and MSP cells were seeded into Boyden Chambers in the presence of TGF-beta Receptor I inhibitors A83-01 and SB431542 (SB43, both at 10 μM). (FIG. 10E) Mammosphere Assay: HTwist and MSP were treated daily during mammosphere formation (5 days) with BMP4 (0.5 μg/ml), SB431542 (10 μM) or a combination of both, n(mammospheres)/1000 cells, n=6.
Migration and invasion assays. For migration assays, 2×10^4 cells were seeded into 24-well cell culture inserts with 8-μm pores (Boyden Chambers, BD Falcon). For invasion assays, matrigel-coated inserts (BD Falcon) were used. After 12-48 hr, the cells on the upper surface of the filters were removed with a cotton swab. For visualization, cells on lower filter surfaces were fixed and stained with a Diff-Quick staining kit (Dade Behring).

[7] = tested on: 26 other kinases; conditions: cited from earlier work
[8] = biological target: GSK3; conditions: ATP-competitive manner; cited from earlier work
[9] = tested on: HMLE^24+ cells; experiment: Boyden chamber migration assay, HMLE^24+ cells; type: cell-based, human; conditions: 0.5 μg/ml in growth medium
Description: as §2
FIGS. 5A-5H. Concomitant stimulation of Wnt and TGF-beta pathways allows HMLE^24+ cells to enter into a mesenchymal and SC-like state. (FIG. 5A) RT-PCR: N-Cadherin, Zeb1 and Zeb2, L32 was loading control, n=3. Prior RNA isolation, HMLE^24+-shGFP or -shSFRP1 (stable knockdown of SFRP1, FIG. 12A) cells were treated for 3 days with daily doses of indicated factors: anti-DKK1 antibody (10 μg/ml), anti-E-Cadherin antibody (1 μg/ml), TGF-beta 1 (5 ng/ml), Wnt5a (250 ng/ml), (FIG. 5B) Brightfield microscopy: images of control, TGF-beta- and iEMT-cocktail treated HMLE^24+ cells after 14 days of treatment as indicated (see also FIG. 12D). (FIG. 5C) RT-PCR: Zeb1, Zeb2, E-Cadherin and N-Cadherin, L32 was loading control, n=3. After 14 day treatment, cells were expanded in absence of further stimulation for 4 passages. Shown are PBS-treated control HMLE^24+-shGFP and HMLE^24+-shSFRP1 cells, two HMLE^24+-shGFP cultures treated with TGF-beta 1 (TGF-β-a and -b), two HMLE^24+-shSFRP1 cultures treated with the iEMT-cocktail (iEMT-a and -b). (FIG. 5D) Immunoblot: EMT markers and associated autocrine pathways, cells generated as described in (C). (FIG. 5E) Migration (Boyden Chamber Assay) and Mammosphere Assay: cells generated as indicated in (C), *control vs. TGF-beta treatment, p<1×10^−4, **control vs. iEMT-treatment, p<1×10^−9, n(migration)=3, n(mammospheres)/1000 cells, n=7. (FIG. 5F) Flow cytometry: CD44 and CD24 cell-surface marker expression in control, TGF-beta-a and iEMT-a cells generated as described in (C). (FIG. 5G) Lung metastasis: cells expanded for 8 passages after cessation of treatment as described in (C) were transformed with RAS; 1.0×10^5 cells were injected into the mammary fat pads of mice; GFP-labeled metastases on the surface of the lungs were quantified; *control vs. all other groups, p<0.05, n=5 mice/group. […]

[10] = tested on: MSP cells; experiment: Mammosphere assay, MSP cells; type: cell-based, human; conditions: added daily for 5 days (FIG. 3D)
Description: as §2, §1

Molecule: Cn1sc(=O)n(Cc2ccccc2)c1=O [TDZD-8, 4-Benzyl-2-methyl-1,2,4-thiadiazolidine-3,5-dione]
- inhibition of PKC [1]: does not inhibit
- inhibition of PKA [2]: does not inhibit
- inhibition of Cdk-1/cyclin B [3]: does not inhibit
- inhibition of CK-II [4]: does not inhibit

Molecule: Cc1cccc(-c2nn(C(=S)Nc3ccccc3)cc2-c2ccnc3ccccc23)n1 [A83-01, reference compound]
- effect on mammosphere formation [5]: attenuated
- effect on migration [6]: attenuated

Molecule: NC(=O)c1ccc(-c2nc(-c3ccc4c(c3)OCO4)c(-c3ccccn3)[nH]2)cc1 [SB431542, reference compound]
- effect on mammosphere formation [5]: attenuated
- effect on migration [6]: attenuated

Molecule: COc1ccc(CNC(=O)Nc2ncc([N+](=O)[O-])s2)cc1 [AR-A014418, N-(4-Methoxybenzyl)-N′-(5-nitro-1,3-thiazol-2-yl)urea]
- inhibition of 26 other kinases [7]: does not significantly inhibit

B1: DKK1: Recombinant human DKK1 protein (R&D Systems), secreted antagonist of canonical Wnt pathway (protein, UniProt O94907 32-266, looked up)
Dickkopf-related protein 1: TLNSVLNSNAIKNLPPPLGGAAGHPGSAVSAAPGILYPGGNKYQTIDNYQPYPCAEDEECGTDEYCASPTRGGDAGVQICLACRKRRKRCMRHAMCCPGNYCKNGICVSSDQNHFRGEIEETITESFGNDHSTLDGYSRRTTLSSKMYHTKGQEGSVCLRSSDCASGLCCARHFWSKICKPVLKEGQVCTKHRRKGSHGLEIFQRCYCGEGLSCRIQKDHHQASNSSRLHTCQRH
- motility of HMLE^24+ cells upon addition of protein [9]: not further reduced
- reduction of migration ([6]; at the highest concentration): 10 fold
- reduction of primary mammosphere number [10]: 20%
